# Reference: article PMC11262537, “Cell-Penetrating Chaperone Nuc1 for Small- and Large-Molecule Delivery Into Retinal Cells and Tissues” (Investigative Ophthalmology & Visual Science, 2024)
# Entries after “also recorded” stand apart in the source; their conditions may differ. Residues, ends and D or L forms follow the SMILES beside them. No end group written: not given here. *: point of attachment. 6FAM = O=C1OC2(c3ccc(O)cc3Oc3cc(O)ccc32)c2cc(C(=O)*)ccc21
# What was measured:
# murine retina = experiment: Retinal toxicity of Nuc1 after intravitreal injection; type: in vivo, C57BL/6J mice; details: for toxicity to the retina: 6-week-old C57BL/6J mice, data not shown
# Procedure: (§1) In order to determine whether Nuc1 peptide was toxic to the murine retina, we injected various amounts (0.5–4.0 µg) 5′ 6-FAM–labeled Nuc1 into the vitreous of 6-week-old C57BL/6J mice and processed the retinas as described below. We determined that 1 µg Nuc1 was not toxic to the retina, whereas 4.0 µg Nuc1 generated some toxicity (data not shown). Based on these observations, we selected 1 µg as an optimal working dose. We then injected 1 µg 5′ 6-FAM–labeled Nuc1 suspended in 1 µL H2O or 1 µg 5′ 6-FAM-SC (a scrambled peptide) into the vitreous of 6-week-old C57BL/6J mice. Four hours postinjection, eyes were enucleated, fixed, and cryosectioned and the retina was imaged by fluorescence microscopy. […] We conclude that Nuc1 peptide penetrates the retina and labels a variety of retinal cells following intravitreal injection.
# Furthermore, while sequences used in the design of Nuc1 were selected based on prior studies of nucleolin and heparan-sulfate proteoglycan-binding sequences, detailed analysis of mechanism(s) of uptake is ongoing in our laboratory. Such studies face the challenge of limitations associated with retinal cell culture with a bona fide extracellular matrix.
# [1] = test system: murine retinal tissue explants; experiment: Retinal explant culture uptake with or without imipramine (macropinocytosis); type: cell-based, C57BL6/J mice; details: 37°C, confocal imaging, n = 3–4 explants per group; for uptake into retinal explants in presence of imipramine: 1 µg/mL in DMEM/F12 + 5 µM imipramine, 4 hours; for uptake into retinal explants: 1 µg/mL in DMEM/F12, 4 hours, 5% CO2, absence of imipramine
# Procedure: After careful removal, the eyeballs from C57BL6/J mice were transferred to a Petri dish containing fresh cold Dulbecco's modified Eagle's medium (DMEM). Under a dissecting microscope, the cornea, ocular muscles, and lens were removed and flat mounts prepared via making four incisions from the margin of the eye cup toward the optic nerve. Flat mounts were transferred into six-well plates containing fresh DMEM/F12 mixed with 5′ 6-FAM-Nuc1 or 5′ 6-FAM-SC (1 µg/mL) in presence or absence of 5 µM imipramine (Sigma). After 4 hours of culturing in a cell culture incubator (37°C, 5% CO2), retinas were washed twice with PBS and fixed with 4% PFA for 15 minutes. Thereafter, the tissue sections were soaked in 15% to 30% sucrose at 4°C overnight. Retinal explants were frozen into Tissue-Tek cryomolds (Torrence, CA, USA) and the 14-µm sections were imaged under a Leica (Teaneck, NJ, USA) TCS-SPE confocal microscope.
# Macropinocytosis is a specialized pathway of endocytosis characterized by the nonspecific internalization of extracellular fluids, solutes, and membrane in large endocytic vesicles known as macropinosomes. Macropinocytosis plays a role in a variety of physiological processes, including nutrient sensing, recycling of plasma proteins, and signaling.[42]^,[43] Molecules that bind HSPGs can stimulate bulk cellular uptake via macropinocytosis.[19] […] In order to test the hypothesis that Nuc1 can be taken up by cells via macropinocytosis, murine retinal tissue explants were incubated in 5′ 6-FAM-Nuc1 (1 µg/mL) in the presence or absence of 5 µM imipramine. After 4 hours, explants were processed for cryosectioning as above. We found robust uptake of 5′ 6-FAM-Nuc1 within 4 hours of incubation (Fig. 7). […] We conclude that Nuc1 peptide penetrates retinal cells in part by the process of macropinocytosis.
# [2] = test system: retinal tissues and cells; experiment: Retinal penetration of FAM-labeled peptide after intravitreal injection, fluorescence microscopy of cryosections; type: in vivo, C57BL/6J mice; details: for localization in retinal layers: 1 µg in 1 µL H2O intravitreal, 4 hours postinjection, fluorescence microscopy of cryosections, n = 4 to 5 animals per group
# Procedure: Retinal cryosections (14 µm) were rehydrated in phosphate-buffered saline (PBS) for 15 minutes, permeabilized, and blocked with 6% normal goat serum in PBS containing 0.1% Triton-X-100 (or using mouse-on-mouse kit as appropriate) for 45 minutes and incubated overnight in a saturated chamber with the primary antibodies against anti-glutamine synthetase (Müller cells), anti–β-III-tubulin (ganglion cells), anti-rhodopsin (rod cells), anti–S-opsin (cone cells), and anti-PKCα (bipolar cells). Subsequently, sections were washed and incubated with respective secondary antibodies labeled with Alexa Fluor 594 or 488 (Molecular Probes, Eugene, OR, USA) or Cy3 (Jackson Immunoresearch, Westgrove, PA, USA). Slides were mounted in antifade medium containing DAPI (Vectashield-DAPI; Vector Laboratories, Burlingame, CA, USA) to counterstain nuclei, and images were captured with a Leica TCS SPE microscope (Leica Microsystems, Wetzlar, Germany).
# as §1
compound,measurement,setting,value
ASIKVAVSAGGDKPRR [Nuc1],toxicity to the retina,murine retina; 1 µg 5′ 6-FAM-labeled Nuc1 intravitreal,not toxic
same,toxicity to the retina,murine retina; 4.0 µg 5′ 6-FAM-labeled Nuc1 intravitreal,some toxicity
same,obvious toxicity associated with Nuc1,murine retina; short-term (4 hours) or longer-term (2 weeks) proof-of-concept studies,did not observe any obvious toxicity
"CC[C@H](C)[C@H](NC(=O)[C@H](CO)NC(=O)[C@H](C)NC(=O)[C@H](CCCNC(=N)N)NC(=O)c1ccc2c(c1)C1(OC2=O)c2ccc(O)cc2Oc2cc(O)ccc21)C(=O)N[C@@H](C)C(=O)N[C@@H](CCCCN)C(=O)N[C@@H](C)C(=O)N[C@@H](CCCNC(=N)N)C(=O)N[C@@H](CC(=O)O)C(=O)N[C@H](C(=O)N[C@@H](CCCCN)C(=O)NCC(=O)N[C@H](C(=O)N1CCC[C@H]1C(=O)NCC(=O)N[C@@H](CO)C(=O)O)C(C)C)C(C)C [5′ 6-FAM-SC, reference compound] (6FAM-RASIAKARDVKGVPGS-OH)",uptake into retinal explants in presence of imipramine,[1],marginal reduction in uptake
same,uptake into retinal explants,[1],did not show any significant uptake
same,localization in retinal layers,[2],accumulated primarily at the inner limiting membrane and was very weakly visible in the retina; also recorded: does not significantly penetrate the retina
CC[C@H](C)[C@H](NC(=O)[C@H](CO)NC(=O)[C@H](C)NC(=O)c1ccc2c(c1)C1(OC2=O)c2ccc(O)cc2Oc2cc(O)ccc21)C(=O)N[C@@H](CCCCN)C(=O)N[C@H](C(=O)N[C@@H](C)C(=O)N[C@H](C(=O)N[C@@H](CO)C(=O)N[C@@H](C)C(=O)NCC(=O)NCC(=O)N[C@@H](CC(=O)O)C(=O)N[C@@H](CCCCN)C(=O)N1CCC[C@H]1C(=O)N[C@@H](CCCNC(=N)N)C(=O)N[C@@H](CCCNC(=N)N)C(=O)O)C(C)C)C(C)C [5′ 6-FAM-Nuc1] (6FAM-ASIKVAVSAGGDKPRR-OH),uptake into retinal explants in presence of imipramine,[1],significantly reduced uptake
same,uptake into retinal explants,[1],robust uptake
same,localization in retinal layers,[2],abundantly localized to all layers of the retina; also recorded: localizes to all layers of the retina
same,retinal cell types targeted,"[2]; 1 µg intravitreal, 4 hours, costaining for tubulin, PKC, rod opsin, glutamine synthase","ganglion cells, bipolar cells, photoreceptors, and Müller cells"
